Laboratory results published in publication PMC4632246 (Analytical biochemistry, 2012).

Experiments:
Type in all cases: binding
[1] = target: Hsp90α-CT (human Hsp90α immobilized via the C-terminal) (Homo sapiens, UniProt P07900); test: Frontal chromatography on Hsp90α-CT column; conditions: for Bmax: Hsp90α-CT column, frontal chromatography, number of active binding sites, ±SE
[2] = target: Hsp90α-NT (human Hsp90α immobilized via the N-terminal) (Homo sapiens, UniProt P07900); test: Frontal chromatography on Hsp90α-NT column; conditions: for Bmax: Hsp90α-NT column, frontal chromatography, number of active binding sites, ±SE
[3] = target: Hsp90α-NT (middle domain of Hsp90α) (Homo sapiens, UniProt P07900); test: Competition studies of eNOS and CEP on Hsp90α-NT column; conditions: eNOS added to the mobile phase

Compound | Bmax [1] | Bmax [2] | Kd [1] | Kd [2] | retention factors of CEP with an increase in eNOS concentrations [3]
berbamine | 89.7 ± 17.1 nmol | 36.5 ± 3.3 nmol |  |  | 
isotetrandrine | 250 ± 29.7 nmol | 54.7 ± 6.3 nmol |  |  | 
COc1cc2c3c(c1OC)Oc1ccc(cc1)C[C@@H]1c4c(cc(OC)c(OC)c4Oc4ccc(cc4)C[C@H]3N(C)CC2)CCN1C [Cycleanine, cycleanine] | 578 ± 110 nmol | 37.3 ± 2.5 nmol | 143 ± 36.6 µM | 159 ± 23.2 µM | 
COc1ccc2cc1Oc1ccc(cc1)C[C@H]1c3c(cc4c(c3Oc3cc5c(cc3OC)CCN(C)[C@@H]5C2)OCO4)CCN1C [Cepharanthine, cepharanthine] | 56.9 ± 7.2 nmol | 19.8 ± 3.1 nmol | 6.3 ± 1.7 µM | 5.3 ± 1.3 µM | decreased
